Measurements reported in PubChem BioAssay AID248 (DTP/NCI, 2004).
Values joined by “and” are separate entries in the source; they are usually repeats but may differ in a detail not shown here. Equal entries are not always repeated. Toxic doses and inconclusive results are not listed. No stated cut-off is given here; in the data, active means T/C of 150% or more; inactive means T/C below 125%.

System: L1210 leukemia ip in BDF1 mice, survival T/C
Assay: NCI In Vivo Anticancer Drug Screen. Data for tumor model L1210 Leukemia (intraperitoneal) in B6D2F1 (BDF1) mice
Details: endpoint: mean survival time, higher = longer survival
Procedure, shortened: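 Tumor cells were implanted, animals were treated, and survival was followed. The result divides the treated measurement by the vehicle-control measurement.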

[1] = dose: 50.0 mg/kg/injection, schedule: Q01DX001 (ip), vehicle: Klucel (hydroxypropylcellulose) (HPC)
[2] = dose: 50.0 mg/kg/injection, schedule: Q01DX001 (ip), vehicle: saline
[3] = dose: 100.0 mg/kg/injection, schedule: Q01DX001 (ip), vehicle: saline
[4] = dose: 200.0 mg/kg/injection, schedule: Q01DX001 (ip), vehicle: saline
[5] = dose: 400.0 mg/kg/injection, schedule: Q01DX001 (ip), vehicle: saline
[6] = dose: 100.0 mg/kg/injection, schedule: Q04DX002 (ip), vehicle: Klucel (hydroxypropylcellulose) (HPC)
[7] = dose: 200.0 mg/kg/injection, schedule: Q04DX002 (ip), vehicle: Klucel (hydroxypropylcellulose) (HPC)
[8] = dose: 400.0 mg/kg/injection, schedule: Q04DX002 (ip), vehicle: Klucel (hydroxypropylcellulose) (HPC)
[9] = dose: 100.0 mg/kg/injection, schedule: Q01DX009 (ip), vehicle: Klucel (hydroxypropylcellulose) (HPC)
[10] = dose: 200.0 mg/kg/injection, schedule: Q01DX009 (ip), vehicle: Klucel (hydroxypropylcellulose) (HPC)
[11] = dose: 400.0 mg/kg/injection, schedule: Q01DX009 (ip), vehicle: Klucel (hydroxypropylcellulose) (HPC)
[12] = dose: 100.0 mg/kg/injection, schedule: Q04DX003 (ip), vehicle: Klucel (hydroxypropylcellulose) (HPC)
[13] = dose: 200.0 mg/kg/injection, schedule: Q04DX003 (ip), vehicle: Klucel (hydroxypropylcellulose) (HPC)
[14] = dose: 400.0 mg/kg/injection, schedule: Q04DX003 (ip), vehicle: Klucel (hydroxypropylcellulose) (HPC)
[15] = dose: 100.0 mg/kg/injection, schedule: Q01DX001 (ip), vehicle: Klucel (hydroxypropylcellulose) (HPC)
[16] = dose: 200.0 mg/kg/injection, schedule: Q01DX001 (ip), vehicle: Klucel (hydroxypropylcellulose) (HPC)
[17] = dose: 400.0 mg/kg/injection, schedule: Q01DX001 (ip), vehicle: Klucel (hydroxypropylcellulose) (HPC)
[18] = dose: 100.0 mg/kg/injection, schedule: Q04DX003 (ip), vehicle: saline
[19] = dose: 200.0 mg/kg/injection, schedule: Q04DX003 (ip), vehicle: saline
[20] = dose: 400.0 mg/kg/injection, schedule: Q04DX003 (ip), vehicle: saline
[21] = dose: 100.0 mg/kg/injection, schedule: Q01DX009 (ip), vehicle: saline with Tween-80
[22] = dose: 200.0 mg/kg/injection, schedule: Q01DX009 (ip), vehicle: saline with Tween-80
[23] = dose: 400.0 mg/kg/injection, schedule: Q01DX009 (ip), vehicle: saline with Tween-80
[24] = dose: 100.0 mg/kg/injection, schedule: Q04DX003 (ip), vehicle: saline with Tween-80
[25] = dose: 200.0 mg/kg/injection, schedule: Q04DX003 (ip), vehicle: saline with Tween-80
[26] = dose: 400.0 mg/kg/injection, schedule: Q04DX003 (ip), vehicle: saline with Tween-80
[27] = dose: 100.0 mg/kg/injection, schedule: Q01DX001 (ip), vehicle: saline with Tween-80
[28] = dose: 200.0 mg/kg/injection, schedule: Q01DX001 (ip), vehicle: saline with Tween-80
[29] = dose: 400.0 mg/kg/injection, schedule: Q01DX001 (ip), vehicle: saline with Tween-80

Measured: T/C

[C-]#[N+]C(C)(C)CC(C)(C)C
inactive: dose: 18.75 mg/kg/injection, schedule: Q04DX003 (ip), vehicle: acetone 103 % of control | dose: 33.0 mg/kg/injection, schedule: Q01DX001 (ip), vehicle: Klucel (hydroxypropylcellulose) (HPC) 110 % of control | dose: 33.0 mg/kg/injection, schedule: Q01DX001 (ip), vehicle: saline 104 % of control | dose: 37.5 mg/kg/injection, schedule: Q04DX003 (ip), vehicle: acetone 109 % of control | [1] 105 % of control | [2] 106 % of control | dose: 75.0 mg/kg/injection, schedule: Q01DX001 (ip), vehicle: Klucel (hydroxypropylcellulose) (HPC) 96 % of control | dose: 75.0 mg/kg/injection, schedule: Q01DX001 (ip), vehicle: saline 104 % of control | dose: 75.0 mg/kg/injection, schedule: Q04DX003 (ip), vehicle: acetone 107 % of control | dose: 110.0 mg/kg/injection, schedule: Q04DX003 (ip), vehicle: saline 94 % of control | dose: 170.0 mg/kg/injection, schedule: Q04DX003 (ip), vehicle: saline 106 % of control

Cc1cc(C)nc(CCSS(=O)(=O)O)c1
inactive: [3] 104 % of control | [4] 102 % of control | [5] 98 % of control

CCn1c(C)nc2cc(N=Cc3ccc(N(CCCl)CCCl)cc3)ccc21
inactive: [6] 113 % of control | [7] 106 % of control | [8] 106 % of control

CC1C(=O)OC(C)(C)OC1=O
inactive: dose: 25.0 mg/kg/injection, schedule: Q01DX009 (ip), vehicle: Klucel (hydroxypropylcellulose) (HPC) 99 % of control | dose: 50.0 mg/kg/injection, schedule: Q01DX009 (ip), vehicle: Klucel (hydroxypropylcellulose) (HPC) 100 % of control | [9] 98 % of control | [10] 94 % of control | [11] 103 % of control

CN(C(=O)OCc1ccccc1)c1ccc(C(=O)O)cc1
inactive: [3] 97 % of control | [4] 94 % of control | [5] 97 % of control

CCC(C#N)c1ccccc1 (stereo not given)
inactive: [9] 103 % of control | [12] 110 % of control | [10] 92 % of control | [13] 119 % of control | [11] 103 % of control | [14] 96 % of control

O=c1[nH]c(Cc2ccc([N+](=O)[O-])cc2)c(Br)c(=O)[nH]1
inactive: [1] 103 % of control | [15] 92 % of control | [16] 92 % of control

S=C(NNc1ccccc1)Nc1ccccc1
inactive: [15] 93 % of control | [16] 103 % of control | [17] 95 % of control

CC(C)(C)C1(C)CN(N=O)C(=O)O1 (stereo not given)
inactive: dose: 12.5 mg/kg/injection, schedule: Q04DX003 (ip), vehicle: Klucel (hydroxypropylcellulose) (HPC) 114 % of control | dose: 25.0 mg/kg/injection, schedule: Q04DX003 (ip), vehicle: Klucel (hydroxypropylcellulose) (HPC) 104 % of control

Cc1ccc(NC(=O)COc2ccc(Cl)cc2)c(C)c1
inactive: [15] 99 % of control | [9] 100 % of control | [12] 96 % of control | [16] 99 % of control | [10] 102 % of control | [13] 96 % of control | [17] 99 % of control | [14] 98 % of control

Cc1[nH]c(=S)[nH]c(=O)c1CC(O)c1ccccc1 (stereo not given)
inactive: [12] 92 % of control | [18] 92 % of control | [19] 94 % of control | [14] 87 % of control | [20] 89 % of control

Cc1ccc(S(=O)(=O)OCC2C3C=CC(C4C=CC43)C2COS(=O)(=O)c2ccc(C)cc2)cc1 (stereo not given)
inactive: [6] 94 % of control | [7] 98 % of control | [8] 98 % of control

CNC(=O)O/N=C/c1cccc(OC)c1
inactive: [21] 93 % of control | [22] 100 % of control | [23] 95 % of control

CCC(C)C1CC1(Br)Br (stereo not given)
inactive: [24] 100 % of control | [25] 100 % of control | [26] 98 % of control

BrC1(Br)CC1(c1ccccc1)c1ccccc1
inactive: [9] 93 % of control | [12] 107 % of control | [18] 107 % of control | [10] 97 % of control | [13] 107 % of control | [19] 107 % of control | [11] 101 % of control | [14] 97 % of control | [20] 97 % of control

CCN(CC)CCNC(=O)c1c2c(nc3ccccc13)CCCC2
inactive: [3] 103 % of control | [4] 102 % of control | [5] 98 % of control

NC(=O)c1ncn[nH]1
inactive: dose: 50.0 mg/kg/injection, schedule: Q01DX009 (ip), vehicle: saline with Tween-80 113 % of control | dose: 50.0 mg/kg/injection, schedule: Q04DX003 (ip), vehicle: saline with Tween-80 104 % of control | [21] 108 % of control | [24] 110 % of control | [22] 120 % of control | [25] 106 % of control

O=C1C=C2C=CCCC2CC1 (stereo not given)
inactive: dose: 75.0 mg/kg/injection, schedule: Q01DX001 (ip), vehicle: other 104 % of control | dose: 150.0 mg/kg/injection, schedule: Q01DX001 (ip), vehicle: other 98 % of control | dose: 300.0 mg/kg/injection, schedule: Q01DX001 (ip), vehicle: other 114 % of control

CC1C[N-]CC(C)C1.[CH-]=C(C)C.[Cl][Pt+2][Cl] (stereo not given)
inactive: dose: 50.0 mg/kg/injection, schedule: Q04DX003 (ip), vehicle: saline 115 % of control | [18] 111 % of control

C=CCc1ccc(OC(=O)Nc2cc(Cl)ccc2OC)c(OC)c1
inactive: [27] 102 % of control | [21] 90 % of control | dose: 100.0 mg/kg/injection, schedule: Q04DX002 (ip), vehicle: saline with Tween-80 101 % of control and 91 % of control | [28] 90 % of control | [22] 96 % of control | dose: 200.0 mg/kg/injection, schedule: Q04DX002 (ip), vehicle: saline with Tween-80 95 % of control | [29] 90 % of control | [23] 95 % of control | dose: 400.0 mg/kg/injection, schedule: Q04DX002 (ip), vehicle: saline with Tween-80 87 % of control and 90 % of control

OCC(Cc1ccccc1)N1CCCCC1 (stereo not given)
inactive: dose: 5.0 mg/kg/injection, schedule: Q01DX001 (ip), vehicle: saline 109 % of control | dose: 10.0 mg/kg/injection, schedule: Q01DX001 (ip), vehicle: saline 96 % of control | dose: 20.0 mg/kg/injection, schedule: Q01DX001 (ip), vehicle: saline 96 % of control | dose: 40.0 mg/kg/injection, schedule: Q01DX001 (ip), vehicle: saline 96 % of control | dose: 80.0 mg/kg/injection, schedule: Q01DX001 (ip), vehicle: saline 96 % of control

COc1ccc(C(O)CCN2CCCCC2)cc1 (stereo not given)
inactive: [27] 112 % of control

COc1ncnc2c1ncn2C1OC(CF)C(O)C1O (stereo not given)
inactive: dose: 100.0 mg/kg/injection, schedule: Q01DX005 (ip), vehicle: saline 101 % of control | dose: 200.0 mg/kg/injection, schedule: Q01DX005 (ip), vehicle: saline 103 % of control

CCN1C(=O)CC2CCCC1C2 (stereo not given)
inactive: [3] 90 % of control

O=C1C=Cc2c(ccc3c4c(ccc23)=CC(=O)C=C4)=C1
inactive: [27] 88 % of control | [28] 90 % of control | [29] 90 % of control

CC1OC(n2cnc3c(=S)nc[nH]c32)C(O)C1O (stereo not given)
inactive: [2] 93 % of control | [3] 96 % of control | [4] 102 % of control | [5] 93 % of control

CC(=O)Nc1cc(C(=O)O)cc(C(F)(F)F)c1
inactive: [21] 96 % of control | [24] 96 % of control | [22] 100 % of control | [25] 102 % of control | [23] 97 % of control | [26] 94 % of control
